Two compounds from US20250255847A1, “[…]s: Novel Drugs for Triple Negative Breast Cancer” (SIMMARON RSEARCH INC, priority 2024, published 2025) can be followed below.

In this assay the test system is MDA-MB-468 cells. Description: TUNEL assay in MDA-MB-468 cells. Format: cell-based, human. The note with it: 25 nM. As for the experimental part: FIG. 11 illustrates an embodiment of the present invention and illustrates SIM-1 and SIM-2 induced apoptosis in MDA-MB-468 TNBC cells, but not HMEC control cells. MDA-MB-468 cells were treated with increasing doses of (A) SIM-1 and (B) SIM-2 for 48 hrs followed by lactate dehydrogenase (LDH) release assay in the supernatants. The result was offset with cell-bound LDH and presented as a percent of DMSO control as discussed under method section. Half-maximal cytotoxicity or CT50 analyses were performed plotting maximum response as an index of increasing doses of (C) SIM-1 and (D) SIM-2. AnnexinV (green) and propidium iodide (red) dual-labeling were performed to evaluate apoptotic response in MDA-MB-468 cells once treated with increasing doses of (E) SIM-1 and (F) SIM-2 for 24 hrs. […] (H) The number of TUNEL bodies were counted as a percent of 100 cresyl violet-stained blue cells. Ten independent images were counted for the quantification study. Similarly, SIM-2 was assessed for (I) TUNEL and (J) subsequent quantification analyses. […]
This example provides a representative experiment that studies if SIM-1 and SIM-2 promoted the death of TNBC cells. […] During apoptosis, phosphatidyl serine of the plasma membrane flips from the inner to the outer membrane which can be detected by Annexin V labeling, whereas PI stains the nucleus of a cell with compromised integrity of the plasma membrane. […]

`CCOC(=O)c1c(NC(C)=O)sc2c(Cl)c(/C=N/O)ccc12` [SIM-2, ethyl 2-acetamido-7-chloro-6-(hydroxyiminomethyl)-1-benzothiophene-3-carboxylate]: the TUNEL response result is reported as “strongly induced”.

As to `O=C(O)CCC(=O)NCc1csc2ccc(Cl)cc12` [SIM-1, 4-[(5-chloro-1-benzothiophen-3-yl)methylamino]-4-oxobutanoic acid], the TUNEL response result is given as “strongly induced”.
